Each structure is given as a SMILES string.

Format in all cases: biochemical
Assay [1] has as its target T1, IGF1R kinase (Homo sapiens, UniProt P08069).
T1 construct: This assay utilizes a recombinant intracellular kinase domain fragment of IGF1R; purchased Promega Corp
Kind of assay: IGF1R ADP-Glo kinase assay, dose-response. The settings on record: for IC50: ADP-Glo, 8-point curves from 100 μM, 50 μM ATP; for selectivity for IGF1R versus InsR: from IC50 values of Table 1. The protocol: (§1) Multi-well liquid dispensing for setting up assays was performed using either the robotic liquid handler PlateMate Plus or the manual electronic multichannel micropipettes Matrix Impact (Thermo Scientific, Hudson, NH, USA). High-throughput Screening (HTS), kinase selectivity, and dose-response (IC50) assays were read in the luminescence mode using the PolarStar Omega reader (BMG Labtech, Ortenberg, Germany) or M5 reader (Molecular Devices Corp., Sunnyvale, CA). IGF1R ADP-Glo data in relative luminescence units (RLU) were collected from the plate readers, and the percentage of activity (% Activity) was determined for each point as follows: % Activity = 100*(RLU sample – RLU no kinase control avg)/(RLU kinase control avg – RLU no kinase control avg). The screening data were processed and visualized using Microsoft Excel templates designed to calculate the inhibition values, the Z’-factor, and GraphPad Prism 5 (GraphPad Software, Inc., La Jolla, CA) for IC50 analysis. The doseresponse curves of Percent Activity were fit in Prism, using a sigmoidal variable slope fit with the maximum % activity and the minimum % activity fixed at 100% and 0%, respectively. The Z′ factor, a statistical measure of variability and reproducibility for HTS assays, was determined using the following formula: Z′ = 1-[3 × (SDsample+SDcontol)/|Msample-Mcontrol|] [12], where SD denotes the standard deviation and M denotes the mean for the samples and controls, respectively. Prior to starting HTS, assay conditions were optimized and validated with regard to the maximum ATP turnover (never exceeding 20%), an acceptable signal-to-background ratio (“assay window”) of at least 6, an acceptable Z’-factor of at least 0.6, as well as day-to-day and plate-to-plate reproducibility of the screening data. All primary screening was performed at 20 μM compound concentrations, and some of the weak hits were subsequently re-tested at higher concentrations (40 or 80 μM) for confirmation. Statistically significant HTS hits in the primary screening were defined as those that produced a kinase activity signal at least three standard deviations lower than the mean of the assay plate run (not including the plate controls). Lineweaver- Burk plots were created in Excel or Prism using the standard algorithms. All assay development and validation and high-throughput screening procedures were carried out according to the general guidelines as published on the U.S. National Chemical Genomics Center web site (NC GC Assay Guidance Manual and High-throughput Assay Guidance Criteria, http://www.ncbi.nlm.nih.gov/books/NBK53196/).
IGF1R high throughput screening (HTS) assays using the IGF1R Kinase System and ADP-Glo readout system (Promega Corp.) were performed in a final volume of 7 μL per test compound using a 384-well small volume microplate format. All liquid dispensing was done using the PlateMate Plus robotic liquid handler. 3 μL aliquots of the enzyme/substrate mixture containing 1 μg of the IGF1Rtide peptide substrate and 4 ng of recombinant IGF1R kinase in a 0.66× assay buffer were transferred to the plate wells. The assay buffer (1×) consisted of 40 mM Tris chloride, 20 mM magnesium chloride, 0,1 mg/ml bovine serum albumin, 2 mM manganese chloride, and 250 μM dithiothreitol (DTT ). To add the tested compounds to the reaction, starting stocks of 10 mM compounds in dimethyl sulfoxide (DMSO) were diluted with DMSO to 2 mM. Next, 3 μL aliquots of 2 mM compound stock solutions in DMSO were transferred to 83 μL volumes of a 1× reaction buffer and thoroughly mixed. Aqueous compound solution aliquots of 2 μL were then transferred into the assay plate to get a final concentration of each compound of 20 μM in 1% DMSO. The plates were pre-incubated at 27°C for 10 min with gentle shaking (300 rpm). The assay was started by adding 2 μL of the ATP stock solution to the reaction mixture to achieve a final ATP concentration of 50 μM. […]
Background: In ADP-Glo the light output rises with the ADP produced.

Another assay addresses T2, InsR kinase (Homo sapiens, UniProt P06213).
T2 construct: the amount of recombinant insulin receptor kinase was 2 ng per well
Nature of the assay: InsR ADP-Glo kinase assay, dose-response. Particulars: for IC50: ADP-Glo, 8-point curves from 100 μM; for stronger inhibition of InsR versus IGF1R: from IC50 values of Table 1. On the procedure: (§2) Kinase selectivity assays with InsR (dose-response measurements) and Met, Syk and BTK kinases (single point compound concentrations) using the ADP-Glo readout system were run under optimized experimental conditions similar to the IGF1R assay with regard to the kinetic parameters of kinase reactions.
Dose-response and IC50 measurements for the confirmed screening hits were conducted for IGF1R and InsR kinases. The conditions were similar to the HTS conditions described above, except that the compounds were plated in 8-point curves serially diluted 1:2 from 100 μM top concentrations and with a 1% final DMSO throughout, in quadruplicates for each compound dilution point. The time of incubation of kinase reaction mixtures was 2.5 or 4.5 hours at 27°C in different experiments both for the insulin kinase receptor and IGF1R, the dithiotreitol (DTT ) concentration was 500 μM, and the amount of recombinant insulin receptor kinase was 2 ng per well. DTT concentration was elevated to enhance the stability of the enzymes during 4.5 h incubation experiments. Compounds were typically serially 2-fold diluted in pure DMSO starting from 10 mM down to 19.5 μM to produce the final concentrations ranging from […] in a 1% DMSO-aqueous reaction buffer.

Another assay addresses Met kinase (Homo sapiens, UniProt P08581). Nature of the assay: Met ADP-Glo kinase selectivity assay, single concentration. Particulars: remaining kinase activity at 40 μM compound, 50 μM ATP. On the procedure: as §2
(§3) The amounts of the Met, Syk, and BTK enzymes and the incubation time were optimized to ensure an ATP conversion not higher than 20% in all cases. The typical assay window (signal/background) was 3–5 for all kinases. The final volumes of the Met, Syk, and BTK kinase assay reaction mixtures were 5 μL. Two μL of the enzyme solution in a 1× reaction buffer (6 ng Met, 8 ng BTK, 4 ng Syk), 1 μL of the compound solution in a 2× reaction buffer, the ATP and substrate mixture in a 0.5× reaction mixture were added sequentially. The composition of the 1× reaction buffer was 40 mM Tris, 20 mM magnesium chloride, 0.1 mg/ml bovine serum albumin, 500 μM DTT at pH 7.5 with 1% final concentration of the DMSO, 50 μM ATP, and 0.2 mg/ml Poly(Glu4, Tyr1) substrates. The buffer was supplemented with 2 mM manganese (II) chloride in the case of BTK kinase. Compounds were tested at 40 μM concentrations. In each experiment, 6 wells with the enzyme, but no added compounds, were used as negative inhibition controls; 6 wells without tested compounds and the enzyme and 6 wells with the enzyme and 0.5–1 μM staurosporine were used as positive inhibition controls. Pre-incubation of the reaction mixture with compounds prior to ATP addition was performed for 20 min at 25°C in all experiments. The incubation of the reaction mixture lasted for 25 min at 37°C. All compounds were tested in 4 to 6 repeats. Conditions of ADP detection were as follows: 40 min incubation with an ADP-Glo reagent, followed by 30 min with a detection reagent at 25°C. Luminescence was read using a BMG Polarstar Omega reader at a gain setting of 4095 and measurement time of 0.5 s.

The next assay deals with Syk kinase (Homo sapiens, UniProt P43405). Kind of assay: Syk ADP-Glo kinase selectivity assay, single concentration. Particulars: remaining kinase activity at 40 μM compound, 50 μM ATP. The protocol: as §2, §3
Another assay has as its target BTK kinase (Homo sapiens, UniProt Q06187). Kind of assay: BTK ADP-Glo kinase selectivity assay, single concentration. The settings on record: remaining kinase activity at 40 μM compound, 50 μM ATP. The protocol:
as §2, §3

Assay [2] concerns the target T1, IGF1R kinase. Kind of assay: Michaelis-Menten kinetics / Lineweaver-Burk competition analysis. The settings on record: Lineweaver-Burk plot; for inhibition mechanism with regard to ATP: IGF1Rtide 143 μg/ml, ATP titrated; for inhibition mechanism with regard to the substrate: poly(Glu4,Tyr1) titrated, ATP 250 μM. The protocol: as §1
Serial dilutions of ATP and substrate polypeptide poly(Glu4,Tyr1) were tested in IGF1R kinase assays with the inhibitors L1 and T4 to produce the kinetic data for Lineweaver-Burk plots. […]

T1 sequence (P08069 999-1274 limits assumed): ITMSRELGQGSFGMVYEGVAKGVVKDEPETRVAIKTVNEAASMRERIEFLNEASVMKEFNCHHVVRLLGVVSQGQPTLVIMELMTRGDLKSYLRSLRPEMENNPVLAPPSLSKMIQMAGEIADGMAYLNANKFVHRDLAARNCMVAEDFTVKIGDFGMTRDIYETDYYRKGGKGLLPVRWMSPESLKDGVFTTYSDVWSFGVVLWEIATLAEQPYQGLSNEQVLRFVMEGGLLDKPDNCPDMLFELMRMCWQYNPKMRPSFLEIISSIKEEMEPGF
Sequence of BTK kinase (Q06187 whole entry): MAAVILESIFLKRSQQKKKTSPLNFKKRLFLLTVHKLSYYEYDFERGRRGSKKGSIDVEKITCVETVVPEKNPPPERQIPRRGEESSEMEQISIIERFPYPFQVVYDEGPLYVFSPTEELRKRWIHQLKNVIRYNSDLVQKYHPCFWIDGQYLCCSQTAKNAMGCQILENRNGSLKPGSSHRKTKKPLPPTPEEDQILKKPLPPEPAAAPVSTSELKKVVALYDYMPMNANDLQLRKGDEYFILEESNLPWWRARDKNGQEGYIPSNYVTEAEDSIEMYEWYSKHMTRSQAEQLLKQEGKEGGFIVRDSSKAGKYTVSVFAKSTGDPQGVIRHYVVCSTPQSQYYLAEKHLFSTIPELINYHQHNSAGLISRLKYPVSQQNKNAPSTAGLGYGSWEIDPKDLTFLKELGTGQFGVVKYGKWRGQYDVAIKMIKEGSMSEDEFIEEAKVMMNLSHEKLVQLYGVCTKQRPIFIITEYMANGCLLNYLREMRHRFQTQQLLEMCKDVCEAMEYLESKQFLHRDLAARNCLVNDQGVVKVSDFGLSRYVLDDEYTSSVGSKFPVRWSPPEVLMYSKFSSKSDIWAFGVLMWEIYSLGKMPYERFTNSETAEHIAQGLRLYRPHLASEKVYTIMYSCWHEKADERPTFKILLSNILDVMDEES
Sequence of Met kinase (P08581 25-1390): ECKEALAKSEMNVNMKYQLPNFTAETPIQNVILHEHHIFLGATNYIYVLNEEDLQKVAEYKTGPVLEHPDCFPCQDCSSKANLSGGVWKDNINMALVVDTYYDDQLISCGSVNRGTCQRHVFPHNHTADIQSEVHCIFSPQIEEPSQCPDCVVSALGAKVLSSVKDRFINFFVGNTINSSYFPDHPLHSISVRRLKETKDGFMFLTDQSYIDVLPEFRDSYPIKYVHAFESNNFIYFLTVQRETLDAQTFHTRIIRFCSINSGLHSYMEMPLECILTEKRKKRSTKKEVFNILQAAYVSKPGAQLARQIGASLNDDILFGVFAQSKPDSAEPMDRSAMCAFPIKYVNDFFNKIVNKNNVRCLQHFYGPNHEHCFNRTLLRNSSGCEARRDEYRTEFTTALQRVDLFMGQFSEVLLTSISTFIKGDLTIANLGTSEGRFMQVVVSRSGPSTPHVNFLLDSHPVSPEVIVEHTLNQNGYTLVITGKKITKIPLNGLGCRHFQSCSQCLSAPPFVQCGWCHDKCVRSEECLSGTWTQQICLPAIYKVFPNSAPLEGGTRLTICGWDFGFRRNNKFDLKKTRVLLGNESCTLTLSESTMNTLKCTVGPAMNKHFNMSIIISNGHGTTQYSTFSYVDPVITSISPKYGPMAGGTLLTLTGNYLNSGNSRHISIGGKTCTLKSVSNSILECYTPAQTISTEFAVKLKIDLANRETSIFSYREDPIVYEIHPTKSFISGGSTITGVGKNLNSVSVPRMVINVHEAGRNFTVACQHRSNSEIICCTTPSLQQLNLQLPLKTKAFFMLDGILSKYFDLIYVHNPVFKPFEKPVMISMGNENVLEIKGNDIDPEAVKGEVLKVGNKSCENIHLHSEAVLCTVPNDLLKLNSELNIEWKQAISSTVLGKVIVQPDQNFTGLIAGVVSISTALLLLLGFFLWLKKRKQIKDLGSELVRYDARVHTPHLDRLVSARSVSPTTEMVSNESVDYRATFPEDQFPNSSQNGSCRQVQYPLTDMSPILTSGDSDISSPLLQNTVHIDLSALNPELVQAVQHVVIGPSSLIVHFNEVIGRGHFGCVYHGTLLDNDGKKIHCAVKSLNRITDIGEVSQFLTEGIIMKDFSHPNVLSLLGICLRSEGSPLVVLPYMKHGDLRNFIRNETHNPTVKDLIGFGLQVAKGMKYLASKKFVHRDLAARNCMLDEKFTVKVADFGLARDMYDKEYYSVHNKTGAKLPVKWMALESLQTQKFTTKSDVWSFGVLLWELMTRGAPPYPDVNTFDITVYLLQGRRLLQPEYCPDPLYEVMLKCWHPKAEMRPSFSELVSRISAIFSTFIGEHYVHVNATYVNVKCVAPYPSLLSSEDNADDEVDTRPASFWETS
T2 sequence (P06213 28-1382): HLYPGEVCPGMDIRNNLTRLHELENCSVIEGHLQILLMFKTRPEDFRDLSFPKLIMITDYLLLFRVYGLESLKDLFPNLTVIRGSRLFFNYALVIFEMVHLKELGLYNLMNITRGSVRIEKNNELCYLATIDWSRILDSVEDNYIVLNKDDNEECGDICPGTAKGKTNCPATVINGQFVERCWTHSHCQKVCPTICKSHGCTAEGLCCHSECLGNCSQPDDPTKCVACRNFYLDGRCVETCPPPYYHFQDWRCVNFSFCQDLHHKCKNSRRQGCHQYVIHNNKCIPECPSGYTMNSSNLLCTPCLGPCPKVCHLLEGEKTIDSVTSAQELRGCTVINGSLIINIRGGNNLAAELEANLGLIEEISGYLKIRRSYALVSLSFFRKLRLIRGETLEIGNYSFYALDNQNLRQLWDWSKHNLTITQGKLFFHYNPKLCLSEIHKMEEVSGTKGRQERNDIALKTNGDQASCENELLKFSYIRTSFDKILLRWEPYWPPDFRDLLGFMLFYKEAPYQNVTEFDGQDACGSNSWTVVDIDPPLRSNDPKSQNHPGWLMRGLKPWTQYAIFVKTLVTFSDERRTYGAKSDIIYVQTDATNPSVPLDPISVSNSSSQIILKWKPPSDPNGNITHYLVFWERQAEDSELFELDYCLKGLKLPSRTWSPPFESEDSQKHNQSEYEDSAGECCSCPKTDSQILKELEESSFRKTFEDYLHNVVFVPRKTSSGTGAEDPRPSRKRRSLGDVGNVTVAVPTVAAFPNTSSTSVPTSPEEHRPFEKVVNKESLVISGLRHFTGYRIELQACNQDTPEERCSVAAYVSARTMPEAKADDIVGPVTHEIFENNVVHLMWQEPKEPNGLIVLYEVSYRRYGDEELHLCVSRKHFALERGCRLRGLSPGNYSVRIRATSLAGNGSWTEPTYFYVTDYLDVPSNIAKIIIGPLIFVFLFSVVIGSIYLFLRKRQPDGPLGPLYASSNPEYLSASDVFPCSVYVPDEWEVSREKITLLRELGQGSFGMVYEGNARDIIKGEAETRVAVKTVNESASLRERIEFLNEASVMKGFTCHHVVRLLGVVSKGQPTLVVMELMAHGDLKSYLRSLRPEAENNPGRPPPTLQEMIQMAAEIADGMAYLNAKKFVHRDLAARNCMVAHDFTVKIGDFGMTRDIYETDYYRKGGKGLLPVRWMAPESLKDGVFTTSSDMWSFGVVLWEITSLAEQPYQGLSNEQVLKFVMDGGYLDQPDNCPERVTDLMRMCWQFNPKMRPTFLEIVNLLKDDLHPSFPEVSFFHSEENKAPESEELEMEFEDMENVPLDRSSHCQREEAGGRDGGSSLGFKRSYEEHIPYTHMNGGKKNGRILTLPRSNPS

As to `O=C(Nc1ccc2c(c1)OCCO2)c1ccc2c(c1)OCCO2` [Compound L1], on IGF1R kinase [1], half-maximal inhibition (IC50) was put at 18 µM and the “selectivity for IGF1R versus InsR” value was “essentially nonselective”. Half-maximal inhibition at InsR kinase (IC50) required 22 µM. In addition, at Met kinase, the “Activity Met, %” value is 102%. On Syk kinase, the “Activity Syk, %” value is recorded as 109%. In addition, on BTK kinase, the “Activity Btk, %” value is 98%. Besides, at IGF1R kinase [2], the “inhibition mechanism with regard to ATP” value was “non-competitive inhibition” and the “inhibition mechanism with regard to the substrate” value is listed as “non-competitive inhibition”.
For the compound `O=C(Nc1ccc2c(c1)OCO2)c1ccc2c(c1)OCCO2` [Compound L2], the IC50 (commonly the concentration that gives 50% inhibition) against IGF1R kinase [1] came out at 25 µM; at InsR kinase, 100 µM. For the same compound, at Met kinase, the “Activity Met, %” value was found to be 63%. Also, at Syk kinase, the “Activity Syk, %” value is 48%. Also, the “Activity Btk, %” value on BTK kinase was found to be 106%.
In the case of `NS(=O)(=O)c1ccc(NNC(=O)c2ccc(NS(=O)(=O)c3cccs3)cc2)c([N+](=O)[O-])c1` [Compound T1], the values for the IC50 against IGF1R kinase [1] and against InsR kinase were around 100 µM and 20 µM, respectively. At InsR kinase, the “stronger inhibition of InsR versus IGF1R” value is 5-10 fold. The “Activity Met, %” value at Met kinase was found to be 78%. For the same compound, the “Activity Syk, %” value at Syk kinase amounted to 84%. The “Activity Btk, %” value at BTK kinase amounted to 92%.
With `COc1cc(CNC(=O)c2ccc[nH]c2=S)ccc1OCc1ccncc1` [Compound T2], the 50% inhibitory concentration (IC50) is 18 µM against IGF1R kinase [1] and 30 µM against InsR kinase. The “Activity Met, %” value on Met kinase was found to be 62%. Further, at Syk kinase, the “Activity Syk, %” value came out at 72%. Besides, the “Activity Btk, %” value at BTK kinase worked out at 83%.
For `CCOc1ccc(NS(=O)(=O)c2ccc3[nH]c(=O)cc(C(=O)Nc4ccn(C)n4)c3c2)cc1` [Compound T3], the IC50 against IGF1R kinase [1] is around 100 µM; against InsR kinase, 10 µM. At InsR kinase, the “stronger inhibition of InsR versus IGF1R” value is 5-10 fold. Also, the “Activity Met, %” value on Met kinase was 98%. Besides, on Syk kinase, the “Activity Syk, %” value worked out at 115%. Also, the “Activity Btk, %” value at BTK kinase is recorded as 81%.
As for `O=C(NCc1ccc(Cn2ccnc2)cc1)c1ccc[nH]c1=S` [Compound T4], inhibition against IGF1R kinase [1] was half-maximal at 7 µM (IC50). On InsR kinase, this compound returned a half-maximal inhibitory concentration (IC50) of 10 µM. For the same compound, the “Activity Met, %” value at Met kinase is 75%. Besides, on Syk kinase, the “Activity Syk, %” value is 115%. In addition, the “Activity Btk, %” value on BTK kinase was determined as 82%. In addition, at IGF1R kinase [2], the “inhibition mechanism with regard to ATP” value was “non-competitive inhibition” and the “inhibition mechanism with regard to the substrate” value is given as “non-competitive inhibition”.
Take `COc1ccc(NC(=O)c2ccc3c(c2)OCCO3)cc1` [Compound L3]: on IGF1R kinase [1], the IC50 was 26 µM and the “selectivity for IGF1R versus InsR” value was “essentially nonselective”. Further, the IC50 against InsR kinase was 29 µM. Also, the “Activity Met, %” value at Met kinase turned out to be 77%. On Syk kinase, the “Activity Syk, %” value came to 88%. For the same compound, the “Activity Btk, %” value on BTK kinase is on record as 106%.
Take `O=C(Nc1ccc2nccnc2c1)c1ccc2c(c1)OCCO2` [Compound L4]: at IGF1R kinase [1], it took 25 µM to reach half-maximal inhibition (IC50) and the “selectivity for IGF1R versus InsR” value was “essentially nonselective”. The same compound had an IC50 against InsR kinase of 30 µM. On Met kinase, the “Activity Met, %” value is reported as 60%. Besides, the “Activity Syk, %” value on Syk kinase was determined as 53%. For the same compound, the “Activity Btk, %” value on BTK kinase is given as 113%.

The values are drawn from paper PMC3695357, “Identification of Novel IGF1R Kinase Inhibitors by Molecular Modeling and High-Throughput Screening” (Acta Naturae, 2013).
